From patent US20030008922A1, “Multiple drug resistance reversal agent” (priority 2002, published 2003) come the findings set out here.

The target of series [1] is T1, Pgp (Homo sapiens, UniProt P08183). The experiment in a line: Pgp ATPase activity (ATP-hydrolysis). It is filed as biochemical. Conditions: values >1 represent stimulation, values <1 represent inhibition. Here is the method: (§1) Pgp ATPase stimulation activity was determined along with displacement of the prazosin analog, iodoarylazidoprazosin (^125IAAP). Ambudkar, S. V. Methods Enzymol 1998, 292: 504-514; Dey, S. et al. Methods Enzymol. 1998, 292: 318.
T1 sequence (P08183 whole entry): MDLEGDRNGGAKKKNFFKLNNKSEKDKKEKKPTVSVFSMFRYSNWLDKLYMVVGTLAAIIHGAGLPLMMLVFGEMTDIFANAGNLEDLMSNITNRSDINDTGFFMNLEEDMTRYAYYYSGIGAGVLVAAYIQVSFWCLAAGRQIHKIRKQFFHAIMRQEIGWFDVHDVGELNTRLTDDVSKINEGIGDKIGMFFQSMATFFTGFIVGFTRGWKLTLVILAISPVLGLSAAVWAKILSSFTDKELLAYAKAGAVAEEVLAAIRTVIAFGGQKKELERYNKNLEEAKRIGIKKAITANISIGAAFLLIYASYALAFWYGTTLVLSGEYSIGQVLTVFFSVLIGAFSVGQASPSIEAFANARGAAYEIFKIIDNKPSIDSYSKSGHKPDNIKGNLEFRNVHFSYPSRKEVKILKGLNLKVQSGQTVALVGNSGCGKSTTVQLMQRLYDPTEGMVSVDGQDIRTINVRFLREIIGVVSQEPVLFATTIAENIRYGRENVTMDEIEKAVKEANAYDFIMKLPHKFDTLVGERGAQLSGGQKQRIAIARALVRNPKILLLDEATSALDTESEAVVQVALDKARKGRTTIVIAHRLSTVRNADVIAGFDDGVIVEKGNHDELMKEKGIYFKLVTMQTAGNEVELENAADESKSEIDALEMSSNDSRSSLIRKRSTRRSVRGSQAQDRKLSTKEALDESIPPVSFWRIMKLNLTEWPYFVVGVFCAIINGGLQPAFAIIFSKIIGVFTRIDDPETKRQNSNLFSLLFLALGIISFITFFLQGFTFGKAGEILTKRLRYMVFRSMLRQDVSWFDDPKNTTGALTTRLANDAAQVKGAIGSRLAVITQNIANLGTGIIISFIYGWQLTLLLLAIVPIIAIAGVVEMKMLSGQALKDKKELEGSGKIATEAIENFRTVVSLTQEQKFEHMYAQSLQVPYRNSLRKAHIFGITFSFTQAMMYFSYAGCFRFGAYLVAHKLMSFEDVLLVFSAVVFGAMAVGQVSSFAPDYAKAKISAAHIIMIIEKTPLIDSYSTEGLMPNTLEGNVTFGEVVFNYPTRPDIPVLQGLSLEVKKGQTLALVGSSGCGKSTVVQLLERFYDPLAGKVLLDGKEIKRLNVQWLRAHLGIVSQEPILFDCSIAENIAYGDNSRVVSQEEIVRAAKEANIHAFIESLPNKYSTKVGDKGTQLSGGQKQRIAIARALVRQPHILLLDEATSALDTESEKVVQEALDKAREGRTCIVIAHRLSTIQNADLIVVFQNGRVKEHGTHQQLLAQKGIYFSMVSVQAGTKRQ
(§2) The effect of the homodimers of the present invention on ATPase activity and IAAP binding to Pgp are very potent. ATPase stimulation reaches a maximum at low concentration (1 μM) and steadily drops off as the concentration is increased (not shown). In contrast with the other homodimers, the X=5 compound slowly achieves maximum stimulation up to 50 μM and this level is maintained as the concentration increases. The other dimers are similar to the monomeric compounds where maximum stimulation is achieved and rapidly drops off as concentration increases. More surprising are the Pgp displacement of photoaffinity labeled substrate analog by the heterodimers. For example, with the heterodimer where X=12 is shown to bind tightly at 1.7 μM.

The target in series [2] is T1, Pgp. In words: Inhibition of 125IAAP binding to Pgp (photoaffinity substrate displacement). Here is the method: as §1, §2

As to `CC(=CCCC#CC=CC(C)C(O)C(C)=CCCc1ccc2ccccc2c1)C(=O)NCCOCCOCCOCCOCCOCCO` (centres unmarked) [compound 16], the ATPase activity at Pgp [1] is given as 0.34 fraction of control. The compound also came in with a Ki at Pgp [2] of 7.6 µM.
